Measured values reported in patent US20220323429A1, “PIMAVANSERIN FOR TREATING NEURODEGENERATIVE DISEASES” (ACADIA Pharmaceuticals Inc., priority 2019, published 2022).

Experiments:
[1] = Nasogastric Tube Compatibility Study, assay (HPLC); type: physicochemical
Procedure: Analytical HPLC Compatibility Study experiments (Example 2) were performed on Agilent 1200 Series, or equivalent; Waters XBridge C18 column, 5 μm 150×4.6 mm; mobile phase: Solvent A: 50 mM ammonium bicarbonate, pH 8.0; Solvent B: acetonitrile/methanol, 80:20 (v/v); Flow rate: 1 mL/min; Inj. Volume 60 μL; Autosampler Temp.: 5° C.; column temperature: 40° C.; the pooled limit of quantitation was 0.05% of 0.68 mg/mL; detection UV at 210 nm; sample concentration (as free base) assay: 0.034 mg/mL, impurity: 0.34 mg/mL; standard concentration (as free base) 0.034 mg/mL; PLOQ Std. 0.05% of 0.34 mg/mL; SST solution, 1% of 0.34 mg/mL (Impurities A, C, D, E, F, and G); diluent for standards 0.1N HCl; diluent for samples 0.1N HCl; run time, 40 min; gradient method: 0 min mobile phase A (90%) and mobile phase B (10%) to 30 min mobile phase A (0%), and mobile phase B (100%); then 30.1 min to 40 min mobile phase A (90%), mobile phase B (10%).
Three samples of pimavanserin in water (n=3) were prepared as follows. The content of one capsule was dropped into a 100 mL bottle, and the empty capsule shell was discarded. Approximately 40 mL of water was added into the bottle, and the bottle was swirled until the contents were disintegrated. Syringes were secured approximately 1 meter above the benchtop, and the plungers were removed. The Hydromer coating on the weighted top of the NG tube was activated by submerging the weight assembly in water for 10 seconds. The NG tube was flushed with 20 mL of water, and remaining water in the syringe and the NG tube was expelled with the help of the syringe plunger. The weighted tip of the NG tube was placed into 100 mL volumetric flasks on the benchtop.
For each sample, the aqueous dispersion was slowly poured into the syringe, allowing it to drain through the NG tube under gravity into the 100 mL collection volumetric flask. The original bottle containing the aqueous suspension of pimavanserin capsules was rinsed twice with 15 mL of water into the same syringe/NG tube system. The dispersion remaining in the syringe and NG tube was expelled with the help of the syringe plunger. Each flask was diluted to volume with 0.33N HCl (to make a final 0.1 N HCl concentration in the flask). The samples were sonicated for 15 minutes with intermediate shaking. A stir bar was added to the flask and the solution was stirred for 2 hours. An aliquot of each solution was centrifuged for 5 minutes at 10000 rom. The supernatant was transferred to a HPLC vial and injected for impurity analysis.
(§1) Samples were prepared by transferring the stock solution using a 2.0 mL volumetric pipet into a 20 mL volumetric flask, diluted to volume with 0.1 N HCl, and mixed well by inversion. An aliquot of each solution was centrifuged for 5 minutes at 10000 rpm. The supernatant was transferred to a HPLC vial and injected for analysis.
A “control” sample was prepared following the sample preparation procedure described above except it was not passed through a syringe/NG system. The content of one capsule was dropped into a 100 mL volumetric flask, and the empty capsule shell was discarded. Next 70 mL of water was added into the flask and swirled until the contents were completely disintegrated. The flask was diluted to volume with 0.33 N HCl (to make final 0.1N HCl concentration). The sample was sonicated for 15 minutes with intermediate shaking. A stir bar was dropped into the flask, and the solution was stirred for 2 hours. An aliquot was taken and centrifuged for 5 minutes at 10000 rpm. The supernatant was transferred to a HPLC vial and injected for impurity analysis.

[2] = Assay from diluted impurity samples (mass balance), in-use stability; type: physicochemical; conditions: for Assay (%) from diluted impurity sample: ambient; for Absolute Difference from Time 0 (%): diluted impurity sample
Procedure: Analytical HPLC Stability Study experiments (Example 1) were performed on Agilent 1200 Series, or equivalent; Waters XBridge C18 column, 5 μm 150×4.6 mm; mobile phase: Solvent A: 50 mM ammonium bicarbonate, pH 8.0; Solvent B: acetonitrile/methanol, 80:20 (v/v); Flow rate: 1 mL/min; Inj. Volume 20 μL; Autosampler Temp. 5° C.; column temperature: 40° C., detection UV at 210 nm; sample concentration (as free base) assay: 0.068 mg/mL, impurity: 0.68 mg/mL; standard concentration (as free base) 0.068 mg/mL; PLOQ Std. 0.05% of 0.68 mg/mL; SST solution, 1% of 0.68 mg/mL (impurities A, C, D, E, F, and G); diluent for standards 80/20 (v/v) ethanol/water; diluent for samples, ethanol; run time 40 min; gradient method: 0 min mobile phase A (90%) and mobile phase B (10%) to 30 min mobile phase A (0%), and mobile phase B (100%); then 30.1 min to 40 min mobile phase A (90%), mobile phase B (10%).
For each sample, one capsule was weighed, and the content of each capsule was dropped into a 50 mL volumetric flask and the empty capsule shell was weighed and discarded. The specified amount of each vehicle was added as specified in Table 3, below.
The flasks were gently swirled to ensure the capsule contents were visually incorporated with the vehicle. The flasks were kept on the bench at ambient temperature for each time point: 2, 4, and 24 hours. Time 0 samples were processed immediately. At the specified time point a stir bar and approximately 45 mL of diluent were added to the flask. The solution was stirred vigorously for 2 hours, and the flask was left on the bench overnight. The next day the flasks were sonicated for approximately 30 minutes. The stir bar was removed and rinsed carefully with diluent into the flask, and the flask was diluted to volume with diluent and mixed well by inversion. An aliquot of each solution was centrifuged for 5 minutes at 10000 rpm. The supernatant was transferred to a HPLC vial, and injected for analysis.
as §1, with “stock volume” for “stock solution”, “a” for “a 2.0 mL”, “with diluent,” for “with 0.1 N HCl,”

SMILES: CC(C)COc1ccc(CNC(=O)N(Cc2ccc(F)cc2)C2CCN(C)CC2)cc1 [Pimavanserin, N-(4-Fluorophenylmethyl)-N-(1-methylpiperidin-4-yl)-N′-(4-(2-methylpropyloxy)phenylmethyl)carbamide]
- Assay (%) ([1]; 34 mg capsule in water passed through syringe/NG tube, sample N = 1): 92.2%
- Assay (%) ([1]; 34 mg capsule in water passed through syringe/NG tube, sample N = 2): 92.7%
- Assay (%) ([1]; 34 mg capsule in water passed through syringe/NG tube, sample N = 3): 96.3%
- Assay (%) ([1]; NG Tube Control: capsule in water, not passed through syringe/NG system): 91.5%
- difference of assay between control sample and mean of 3 NG tube samples ([1]; aqueous dispersion of 34 mg capsule): ≤ 2%
- effect of in vitro administration through a NG tube on stability ([1]; capsule contents added to different vehicles): no effect
- Assay Mean % (n = 6) ([1]; mean of NG tube samples): 93.8%
- Assay (%) from diluted impurity sample ([2]; Ensure 5 mL, T = 0): 97.1%
- Assay (%) from diluted impurity sample ([2]; Ensure 5 mL, T = 2 h): 94.6%
- Assay (%) from diluted impurity sample ([2]; Ensure 5 mL, T = 4 h): 97.9%
- Assay (%) from diluted impurity sample ([2]; Ensure 5 mL, T = 24 h): 97.3%
- Absolute Difference from Time 0 (%) ([2]; Ensure, T = 0): 2.9%
- Absolute Difference from Time 0 (%) ([2]; Ensure, T = 2 h): 5.4%
- Absolute Difference from Time 0 (%) ([2]; Ensure, T = 4 h): 2.1%
- Absolute Difference from Time 0 (%) ([2]; Ensure, T = 24 h): 2.7%
- Assay (%) from diluted impurity sample ([2]; applesauce 5 g, T = 0): 97.5%
- Assay (%) from diluted impurity sample ([2]; applesauce 5 g, T = 2 h): 99.4%
- Assay (%) from diluted impurity sample ([2]; applesauce 5 g, T = 4 h): 104.1%
- Assay (%) from diluted impurity sample ([2]; applesauce 5 g, T = 24 h): 99.5%
- Absolute Difference from Time 0 (%) ([2]; applesauce, T = 0): 4.4%
- Absolute Difference from Time 0 (%) ([2]; applesauce, T = 2 h): 2.5%
- Absolute Difference from Time 0 (%) ([2]; applesauce, T = 4 h): 2.2%
- Absolute Difference from Time 0 (%) ([2]; applesauce, T = 24 h): 2.4%
- assay results difference from time 0 ([2]; diluted impurity samples, all vehicles and times): ≤ 5%
- Assay (%) from diluted impurity sample ([2]; orange juice 5 mL, T = 0): 97.7%
- Assay (%) from diluted impurity sample ([2]; orange juice 5 mL, T = 2 h): 97.5%
- Assay (%) from diluted impurity sample ([2]; orange juice 5 mL, T = 4 h): 96.4%
- Assay (%) from diluted impurity sample ([2]; orange juice 5 mL, T = 24 h): 99.2%
- Absolute Difference from Time 0 (%) ([2]; orange juice, T = 0): 2.6%
- Absolute Difference from Time 0 (%) ([2]; orange juice, T = 2 h): 2.8%
- Absolute Difference from Time 0 (%) ([2]; orange juice, T = 4 h): 3.9%
- Absolute Difference from Time 0 (%) ([2]; orange juice, T = 24 h): 1.1%
- Assay (%) from diluted impurity sample ([2]; water 5 mL, T = 0): 95.6%
- Assay (%) from diluted impurity sample ([2]; water 5 mL, T = 2 h): 98.2%
- Assay (%) from diluted impurity sample ([2]; water 5 mL, T = 4 h): 97.1%
- Assay (%) from diluted impurity sample ([2]; water 5 mL, T = 24 h): 97.5%
- Absolute Difference from Time 0 (%) ([2]; water, T = 0): 3.3%
- Absolute Difference from Time 0 (%) ([2]; water, T = 2 h): 0.7%
- Absolute Difference from Time 0 (%) ([2]; water, T = 4 h): 1.8%
- Absolute Difference from Time 0 (%) ([2]; water, T = 24 h): 1.4%
